Data on 1 cell line can be found in the supplement of paper PMC10307832.

Common to all, as to assay: relative viability (nuclei count vs DMSO), 5 days (fraction); higher = more cells survive
Compound in test [1]: COc1cc2nc(N3CCCN(C)CC3)nc(NC3CCN(Cc4ccccc4)CC3)c2cc1OC + CC1(C)CCC(c2ccc(Cl)cc2)=C(CN2CCN(c3ccc(C(=O)NS(=O)(=O)c4ccc(N[C@H](CCN5CCOCC5)CSc5ccccc5)c(S(=O)(=O)C(F)(F)F)c4)cc3)CC2)C1 [Navitoclax] (partner 0.5 µM)
The essentials: (§1)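 Cells from lung cancer lines were seeded into 1536-well plates and, one day later, dosed by pin tool. Treatments were either a single drug or a fixed dose of an anchor drug with five library-drug doses (not always all listed) in √10 steps. After 5 days, nuclei were stained in a one-step fixation (final 0.05% Triton X-100, 1% formaldehyde, 1 ug/ml Hoechst) and counted on 4× images, and relative viability is the treated-to-vehicle nuclei ratio, as the median of duplicate plates.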

Compound in test [2]: COc1cc2nc(N3CCCN(C)CC3)nc(NC3CCN(Cc4ccccc4)CC3)c2cc1OC + Cc1nc(Nc2ncc(C(=O)Nc3c(C)cccc3Cl)s2)cc(N2CCN(CCO)CC2)n1 [Dasatinib] (partner 0.075 µM)
The essentials:
as §1

Compound in the test “AZD6482 + Tozasertib”: Cc1cc([C@@H](C)Nc2ccccc2C(=O)O)c2nc(N3CCOCC3)cc(=O)n2c1 [AZD6482] + Cc1cc(Nc2cc(N3CCN(C)CC3)nc(Sc3ccc(NC(=O)C4CC4)cc3)n2)n[nH]1 [Tozasertib] (partner 0.1 µM)
The essentials:
as §1

Compound in the test “AZD6482 + Pemetrexed”: Cc1cc([C@@H](C)Nc2ccccc2C(=O)O)c2nc(N3CCOCC3)cc(=O)n2c1 [AZD6482] + Nc1nc2[nH]cc(CCc3ccc(C(=O)N[C@@H](CCC(=O)O)C(=O)O)cc3)c2c(=O)[nH]1 [Pemetrexed] (partner 0.2 µM)
The method, boiled down: as §1

As to SW 1573, the relative viability in test [1] (first compound 0.2 µM) was 0.941; in test [1] (first compound 0.6325 µM), 0.868; in test [1] (first compound 2 µM), 1.08; in test [1] (first compound 6.325 µM) it was 0.755; in test [2] (first compound 0.2 µM) it was 0.453; in test [2] (first compound 0.6325 µM), 0.454. For the same cell line, the relative viability in test [2] (first compound 2 µM) is 0.665; in test [2] (first compound 6.325 µM), 0.295; with AZD6482 + Tozasertib (first compound 0.08 µM), 0.158; in the test with AZD6482 + Tozasertib (first compound 0.253 µM), 0.17; with AZD6482 + Tozasertib (first compound 0.8 µM), 0.184; in the test with AZD6482 + Tozasertib (first compound 2.53 µM), 0.123. Besides, the relative viability with AZD6482 + Tozasertib (first compound 8 µM) was determined as 0.143; in the test with AZD6482 + Pemetrexed (first compound 0.08 µM), 0.881; with AZD6482 + Pemetrexed (first compound 0.253 µM) it was 0.822; with AZD6482 + Pemetrexed (first compound 0.8 µM), 0.827; with AZD6482 + Pemetrexed (first compound 2.53 µM), 0.723; in the test with AZD6482 + Pemetrexed (first compound 8 µM), 0.75.
